Experimental data from patent US11976092B2, “RNA nanostructures, methods of making, and uses thereof” (Ohio State Innovation Foundation, priority 2018, dated 2024).

Key:
[1] = Apparent hydrodynamic diameter by DLS (Zetasizer nano-ZS); format: physicochemical; conditions: 25° C.
Excerpt: The data was obtained from three independent measurements.

[2] = test system: KB cells; experiment: FITC Annexin V / PI apoptosis assay (FACS); format: cell-based, Human; conditions: 1 μM, 48 hr treatment
Method: FITC Annexin V Apoptosis Detection Kit (BD Pharmingen) and Caspase-3 Assay Kit (BD Pharmingen) were used as previously reported to study cell apoptosis induced by pRNA-3WJ-PTX micelle treatment. For FITC Annexin V staining assay, KB cells were seeded in 12-well plates overnight. […] The controls include Paclitaxel, pRNA-3WJ micelles, and pRNA-3WJ. According to manufacturer instructions, 48 hr after incubation with the RNA micelles, KB cells were trypsinized to single cell suspension. After two PBS washes, the cells were resuspended in 100 μL 1× Annexin V-FITC binding buffer. Then 5 μL AnnexinV-FITC and 5 μL propidium iodide (PI) were added into each sample and incubated at room temperature for 25 min. The samples were finally added to a flow tube which contained 200 μL 1× binding buffer for FACS analysis within 1 hr.

[3] = FIG. 31B
Excerpt: Table printed on a drawing sheet, FIG. 31B
The patent's description of the figure: FIGS. 31A and 31B show enzymatic stability of branched 3WJs modular RNA motifs. FIG. 31A. Serum degradation curve. FIG. 31B. Half life of 3WJs in 50% serum.
FIGS. 29A to 31B show design (FIGS. 29A and 29B), thermal stability (qPCR & TGGE, FIGS. 30A to 30C), and enzymatic stability (serum stability assay, FIGS. 31A and 31B) of branched 3WJs with different core and helix.

Substance | average hydrodynamic diameter [1] [nm] | cells undergoing apoptosis [2] [%] | t1/2 [3] [h]
pRNA-3WJ: phi29 pRNA three-way junction scaffold of a3WJ, b3WJ, c3WJ (SEQ ID NO:16-18), without lipophilic and therapeutic modules (chain 1 UUGCCAUGUGUAUGUGGG; chain 2 CCCACAUACUUUGUUGAUCC; chain 3 GGAUCAAUCAUGGCAA; 2'-fluoro at CU, RNA at AG, backbone not given here) | 7.466±1.215 | 3.7 | –
Phi29-Mod: 3WJ modular RNA motif, SEQ ID NOs:19-21 (chain 1 AUUCGCUGUGUGGUAGUG; chain 2 CACUACCACUUUGUCCUACG; chain 3 CGUAGGACCAGCGAAU; further chemistry not given here) | – | – | 24
